Data on 84 compounds can be found in PubChem BioAssay AID588780 (Sanford-Burnham Center for Chemical Genomics, 2011).

SMILES strings stand for the structures. The source made the active and inactive calls.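 Rule for the calls: active = compounds whose fitted half-maximal concentration in the cell-protection dose series is at or below a set limit; inactive = the rest.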

The assay deals with H9c2 cardiomyocytes, 2-deoxyglucose stress, ATP luminescence, 2 h. Put plainly: protection of cardiomyocytes from 2-deoxyglucose injury, dose response, cell-based, 2-deoxyglucose stress, uHTS hits (AID 588780).
Take `COc1ccc2oc(C(=O)Nc3ccc(N4CCOCC4)cc3)c(C)c2c1`: the IC50 (as a rule, the concentration needed to halve the response being measured) is > 79 µM (inactive).

Turning to `COC(=O)c1cc(Cl)c(NC(=O)/C=C/c2ccc(OC)c(OC)c2)cc1OC`, the IC50 was > 79 µM (inactive).

With `O=C(COc1cccc2c1CCNC2=O)Nc1ccc(Cl)cc1`, the IC50 was > 79 µM (inactive).

For the compound `COc1ccccc1OCCSc1nc2ccccc2c(=O)[nH]1`, the IC50 is > 79 µM (inactive).

`Nc1ncc(-c2ccccc2)n1CC1CCCO1` (centres undefined): the IC50 is > 79 µM (inactive).

Take `COc1ccc(OC)c(N(CC(=O)Nc2cccnc2)S(=O)(=O)c2ccc(OC)c(OC)c2)c1`: the IC50 is 42.7 µM (inactive).

With `CCCN1C(=O)c2cc(C(=O)Nc3cccc(C(C)=O)c3)ccc2C1Nc1cccc(C(C)=O)c1` (centres undefined), the IC50 is 11.4 µM.

On to `CCOC(=O)C1=C(C)N=c2s/c(=C\c3ccncc3)c(=O)n2C1c1ccc2c(c1)OCO2` (centres undefined), for which the IC50 is 41.1 µM (inactive).

On to `CC1(C)Cc2c(C#N)c(SCc3nc4ccccc4[nH]3)nc(N3CCOCC3)c2CO1`, for which the IC50 was > 79 µM (inactive).

For `COc1ccc(CCNC(=O)c2cc(C(=O)c3cc(C)ccc3O)cn(CCc3ccc(OC)cc3)c2=O)cc1`, the IC50 was > 79 µM (inactive).

Take `CC(=NCCCn1ccnc1)c1c(-c2ccccc2)[nH]n(-c2nc3ccccc3s2)c1=O`: the IC50 was > 79 µM (inactive).

Regarding `CC(C)COP(=O)(OCC(C)C)C(Nc1ccccc1)c1ccc2c(c1)OCO2` (centres undefined), the IC50 is > 79 µM (inactive).

For `Cc1ccc(OCCOC(=O)CCc2nc3ccccc3c(=O)[nH]2)cc1`, the IC50 is > 79 µM (inactive).

Regarding `O=C(COc1ccc(Cl)cc1)NCc1n[nH]c(=O)c2ccccc12`, the IC50 was > 79 µM (inactive).

For the compound `C=CC[C@@H](CC(=O)N[C@H](CO)Cc1ccccc1)C(=O)N[C@@H](COC(=O)[C@@H](CC=C)CC(=O)OC(C)(C)C)Cc1ccccc1`, the IC50 was 17.5 µM.

As for `CCOc1ccccc1C(=O)N/N=C/c1cccc2cccnc12`, the IC50 was > 79 µM (inactive).

As for `COCCCn1c(N)c(C(=O)Nc2sc3c(c2C(=O)OC)CCCC3)c2nc3ccccc3nc21`, the IC50 is 34 µM (inactive).

`O=c1[nH]c2ccccc2c2ccccc12`: the IC50 is > 79 µM (inactive).

In the case of `NC(=O)c1cccc(-c2coc3c(C(=O)NCCc4ccccc4)cccc23)c1`, the IC50 is > 79 µM (inactive).

As for `COc1ccc(NC(=O)CCc2nc3ccccc3c(=O)[nH]2)cc1S(=O)(=O)N1CCCCC1`, the IC50 is > 79 µM (inactive).

As for `O=c1[nH]c(N2CCN(c3ccccc3)CC2)nc2c1CCCC2`, the IC50 was > 79 µM (inactive).

Take `Cc1ccc(-c2n[nH]c(=O)c3ccccc23)cc1S(=O)(=O)NCCO`: the IC50 was 39.8 µM (inactive).

As to `CCOc1ccc2ccccc2c1C(=O)N[C@@H]1C(=O)N2[C@@H]1SC(C)(C)[C@@H]2C(=O)O`, the IC50 is 47.1 µM (inactive).

For `O=C(CN1CCN(Cc2ccccc2)CC1)Nc1ccc([N+](=O)[O-])cc1C(=O)Nc1ccccc1F`, the IC50 was 35.6 µM (inactive).

As to `CCOC(=O)C1=C(C)NC(C)=C(C(=O)OCC)C1C(=O)OCC(=O)NC(C)C`, the IC50 was 19.7 µM.

Take `NS(=O)(=O)c1cccc(NC(=O)COC(=O)Cc2n[nH]c(=O)c3ccccc23)c1`: the IC50 is > 79 µM (inactive).

Turning to `COc1cc(-c2cc(C(=O)NCc3ccco3)c3ccccc3n2)cc(OC)c1OC`, the IC50 is 16.6 µM.

Regarding `N#Cc1ccc(OCC(=O)Nc2nc(-c3ccccn3)cs2)cc1`, the IC50 was > 79 µM (inactive).

Regarding `CC1(C(=O)Nc2cccc(OC(F)(F)F)c2)Cc2c(-c3ccc(C(N)=O)cc3)ccnc2O1` (centres undefined), the IC50 was > 79 µM (inactive).

`COc1ccc(-c2cc(NC(C)=O)c3ncc(-c4cccc(C(C)=O)c4)n3c2)cc1OC`: the IC50 was 7.56 µM.

Consider `NC(=O)c1ccc(NC(=O)COc2cccc3c2CCNC3=O)cc1`, for which the IC50 is > 79 µM (inactive).

As for `CCOC(=O)CSc1nc2ccccc2c(=O)[nH]1`, the IC50 is > 79 µM (inactive).

With `CCOC(=O)CSc1nc2sc(C)c(C)c2c(=O)[nH]1`, the IC50 was > 79 µM (inactive).

Consider `CC(=O)Nc1cc(-c2ccc(C(=O)NC3CC3)cc2)cn2c(-c3cccc(C(C)=O)c3)cnc12`, for which the IC50 was > 79 µM (inactive).

Take `Cc1cc(Cl)ccc1OCCCC(=O)NNC(=O)c1ccccc1O`: the IC50 was > 79 µM (inactive).

As to `NC(=O)c1ccccc1OCC(=O)Nc1cccnc1Cl`, the IC50 is > 79 µM (inactive).

With `COc1ccc(N(C(=O)c2cccnc2)S(=O)(=O)c2cccs2)cc1`, the IC50 is > 79 µM (inactive).

For the compound `COc1cc(-c2ccc3oc(-c4ccsc4)cc(=O)c3c2)cc(OC)c1OC`, the IC50 was > 79 µM (inactive).

For the compound `O=C(CSc1nc2ccccc2c(=O)[nH]1)N1CCCCCC1`, the IC50 is > 79 µM (inactive).

Regarding `COc1ccc(-c2cc(NC=O)c3ncc(-c4ccc(C(C)=O)cc4)n3c2)cn1`, the IC50 was > 79 µM (inactive).

Take `COc1ccnc(Oc2ccccc2)c1C(=O)N/C=N/OCc1ccc(F)cc1Cl`: the IC50 is > 79 µM (inactive).

As for `Cc1ccc(OCC(=O)NCc2n[nH]c(=O)c3ccccc23)cc1`, the IC50 is > 79 µM (inactive).

With `O=C(N/N=C/c1ccccn1)c1cccc([N+](=O)[O-])c1`, the IC50 is > 79 µM (inactive).

Consider `CC(=O)c1c(C)n(-c2cccc(Cl)c2)c2ccc(O)cc12`, for which the IC50 is 16.8 µM.

`CC(C)c1ccc(S(=O)(=O)N2CCN(CC(=O)c3ccc(O)c(O)c3)CC2)cc1`: the IC50 was 21.3 µM.

On to `Cc1ccc(C(C)C)c(OCC(=O)NNC(=O)Cn2[nH]c(=O)c3ccccc3c2=O)c1`, for which the IC50 was 75.1 µM (inactive).

Consider `CSc1nc(Cl)c(Br)c(N2CC2)n1`, for which the IC50 is > 79 µM (inactive).

Take `COc1ccccc1NS(=O)(=O)c1ccc2oc(SCC(=O)N3CCNC3=O)nc2c1`: the IC50 is 36.5 µM (inactive).

Regarding `Nc1ccc2nc(-c3cccs3)[nH]c2c1`, the IC50 was > 79 µM (inactive).

For `CCOC(=O)C(C)Oc1ccc(C2NC(=O)NC(C)=C2C(C)=O)cc1Br` (centres undefined), the IC50 was > 79 µM (inactive).

Regarding `Cc1ccc2nsnc2c1S(=O)(=O)N(Cc1ccco1)Cc1cc2cccc(C)c2[nH]c1=O`, the IC50 was 25.8 µM.

Take `COc1cc2c(C#CCCO)c(-c3ccsc3)oc(=O)c2cc1OC`: the IC50 was > 79 µM (inactive).

On to `CSCCC(NS(=O)(=O)c1ccccc1)C(=O)OCc1cc(=O)oc2cc(O)ccc12` (centres undefined), for which the IC50 is > 79 µM (inactive).

As for `COc1ccc(Br)cc1/C=N/NC(=O)CNC(=O)/C=C/c1ccccc1`, the IC50 was > 79 µM (inactive).

For `CCN(CC(=O)Nc1ccc(OC)cc1)C(=O)CCc1nc2ccccc2c(=O)[nH]1`, the IC50 is > 79 µM (inactive).

For `COc1cccc(OC)c1-c1nn2c(-c3ccco3)nnc2s1`, the IC50 is > 79 µM (inactive).

On to `COc1ccc(Cc2n[nH]c(=O)c3ccccc23)cc1OC`, for which the IC50 is > 79 µM (inactive).

On to `O=C(/C=C\c1cn(-c2ccccc2)nc1-c1ccc2c(c1)OCCO2)N1CCOCC1`, for which the IC50 was > 79 µM (inactive).

With `CC(C)(C)OC(=O)NCCCCCNC(=O)c1[nH]cnc1C(=O)Nc1cc(Br)ccc1F`, the IC50 is > 79 µM (inactive).

Regarding `O=c1[nH]nc(Cc2ccc([N+](=O)[O-])cc2)c2ccccc12`, the IC50 was 29.5 µM.

On to `COc1ccc(-c2cc(=O)oc3cc(OC(=O)C4CCCCC4)ccc23)cc1`, for which the IC50 was 31.7 µM (inactive).

Take `O=[N+]([O-])c1ccc(Nc2nc(N/N=C/c3cccc(F)c3)nc(N3CCCC3)n2)cc1`: the IC50 was > 79 µM (inactive).

For `COc1cc(NC(=O)c2cc3ccccc3cc2OC)ccc1NC(=O)c1cccs1`, the IC50 was > 79 µM (inactive).

Turning to `Cc1nnc2ccc(-c3cccc(NC(=O)c4ccc(Cl)nc4)c3)nn12`, the IC50 was 22.1 µM.

Consider `O=C(NCc1n[nH]c(=O)c2ccccc12)C1CC(=O)N(c2ccccc2)C1` (centres undefined), for which the IC50 is 43 µM (inactive).

Turning to `COc1ccc(-c2nnc3sc(-c4ccco4)nn23)cc1OC`, the IC50 was > 79 µM (inactive).

For the compound `Cc1ccc(N2C(=O)CS/C2=C(\C(Cl)=C(Cl)Cl)[N+](=O)[O-])cc1`, the IC50 was > 79 µM (inactive).

For `COc1ccc(CNc2nn3c(-c4cccc(C(=O)N(C)C)c4)cnc3s2)cc1`, the IC50 is > 79 µM (inactive).

Take `CCOc1cccc(-c2c(C(=O)N/N=C(\C)c3ccccn3)nnn2-c2nonc2N)c1`: the IC50 was > 79 µM (inactive).

In the case of `CCN(CC)C(=O)CSc1nc2ccccc2c(=O)[nH]1`, the IC50 is > 79 µM (inactive).

Consider `N#C/C(=C\Nc1ccc2c(c1)OCCO2)c1nc2ccccc2[nH]1`, for which the IC50 is > 79 µM (inactive).

Turning to `COc1ccc2[nH]c(=O)c(CN(Cc3cccnc3)S(=O)(=O)c3ccccc3F)cc2c1`, the IC50 was > 79 µM (inactive).

As to `COc1ccc2[nH]c(=O)c(CN(Cc3nnnn3Cc3ccccc3)CC3CCCO3)cc2c1` (centres undefined), the IC50 is > 79 µM (inactive).

For `O=C1OCCN1C(=O)[C@H]1[C@H](c2ccc([N+](=O)[O-])cc2)C(c2ccc(F)cc2)=NN1c1ccc(Br)cc1`, the half-inhibitory concentration (IC50) is 6.03 µM.

Take `Cc1cccc(OCCn2c(NC(=O)c3ccco3)nc3ccccc32)c1`: the IC50 is 17.8 µM.

Turning to `CC(OC(=O)Cc1n[nH]c(=O)c2ccccc12)C(=O)Nc1ccccc1[N+](=O)[O-]` (centres undefined), the IC50 was 49.1 µM (inactive).

For `Cc1cc(C(=O)N/N=C/c2cc(Br)ccc2OC(=O)c2ccccc2Cl)n[nH]1`, the IC50 is > 79 µM (inactive).

For the compound `CCCCCCn1c(C)nc2c(c1=O)c1nc3ccccc3nc1n2/N=C/c1ccco1`, the IC50 is > 79 µM (inactive).

As for `CCCN(CC(=O)Nc1ccc(F)c(F)c1F)C(=O)CCc1nc2ccccc2c(=O)[nH]1`, the IC50 was > 79 µM (inactive).

Regarding `O=C1N[C@H]2CC=C[C@H]2Nc2ccccc21`, the IC50 is > 79 µM (inactive).

In the case of `COc1ccc(Cl)cc1NC(=O)CN(C)C(=O)Cc1n[nH]c(=O)c2ccccc12`, the IC50 was > 79 µM (inactive).

On to `COc1cc(-c2cnc3c(NC=O)cc(-c4cccnc4)cn23)cc(OC)c1OC`, for which the 50% inhibitory concentration (IC50) was 30 µM.

Regarding `O=C(Cn1[nH]c(=O)c2ccccc2c1=O)N1CCN(S(=O)(=O)c2ccc(Cl)cc2)CC1`, the IC50 was > 79 µM (inactive).

`Cc1ccc(-c2n[nH]c(=O)c3ccccc23)cc1S(=O)(=O)NC(C)(C)C`: the IC50 was > 79 µM (inactive).
